Assay results published in PubChem BioAssay AID2060908 (Molecular Pharmacology Branch, DTP, NCI, 2025).
Each block holds one compound with its values, some of them ahead of it.

Test system: 186277-243-T-J2-PDC complex spheroids, viability
Assay: Anticancer human tumor 186277-243-T-J2-PDC patient-derived colon adenocarcinoma cell line growth inhibition [RAS]
Details: for IC50: curve of first compound; for viability, T/C: stronger effect = lower value
How it was run: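 Agents were tested in combination matrices in half-log decrements from a top concentration at or near clinical Cmax (10 microM if undetermined). Targets were multi-cell spheroids of tumour lines plus HUVEC and MSC stromal cells.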

[1] = second compound 0.000949 µM, first compound 0.0316 µM
[2] = second compound 0.000949 µM, first compound 0.1 µM
[3] = second compound 0.000949 µM, first compound 0.316 µM
[4] = second compound 0.000949 µM, first compound 1 µM
[5] = second compound 0.000949 µM, first compound 3.16 µM
[6] = second compound 0.000949 µM, first compound 10 µM
[7] = second compound 0.003 µM, first compound 0.0316 µM
[8] = second compound 0.003 µM, first compound 0.1 µM
[9] = second compound 0.003 µM, first compound 0.316 µM
[10] = second compound 0.003 µM, first compound 1 µM
[11] = second compound 0.003 µM, first compound 3.16 µM
[12] = second compound 0.003 µM, first compound 10 µM
[13] = second compound 0.00949 µM, first compound 0.0316 µM
[14] = second compound 0.00949 µM, first compound 0.1 µM
[15] = second compound 0.00949 µM, first compound 0.316 µM
[16] = second compound 0.00949 µM, first compound 1 µM
[17] = second compound 0.00949 µM, first compound 3.16 µM
[18] = second compound 0.00949 µM, first compound 10 µM
[19] = second compound 0.03 µM, first compound 0.0316 µM
[20] = second compound 0.03 µM, first compound 0.1 µM
[21] = second compound 0.03 µM, first compound 0.316 µM
[22] = second compound 0.03 µM, first compound 1 µM
[23] = second compound 0.03 µM, first compound 3.16 µM
[24] = second compound 0.03 µM, first compound 10 µM
[25] = second compound 0.0949 µM, first compound 0.0316 µM
[26] = second compound 0.0949 µM, first compound 0.1 µM
[27] = second compound 0.0949 µM, first compound 0.316 µM
[28] = second compound 0.0949 µM, first compound 1 µM
[29] = second compound 0.0949 µM, first compound 3.16 µM
[30] = second compound 0.0949 µM, first compound 10 µM
[31] = second compound 0.3 µM, first compound 0.0316 µM
[32] = second compound 0.3 µM, first compound 0.1 µM
[33] = second compound 0.3 µM, first compound 0.316 µM
[34] = second compound 0.3 µM, first compound 1 µM
[35] = second compound 0.3 µM, first compound 3.16 µM
[36] = second compound 0.3 µM, first compound 10 µM
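Note: spheroids exposed to compounds for 7 days before viability read.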

- IC50 (second compound 0.000949 µM): 1.9 µM
- IC50 (second compound 0.003 µM): 1.87 µM
- IC50 (second compound 0.00949 µM): 2.29 µM
- IC50 (second compound 0.03 µM): 1.38 µM
- IC50 (second compound 0.0949 µM): 0.726 µM
- IC50 (second compound 0.3 µM): 0.349 µM
SMILES: CC(C)NCC(C(=O)N1CCN(c2ncnc3c2C(C)CC3O)CC1)c1ccc(Cl)cc1 (stereo not drawn) + CCn1c(-c2cccnc2C(C)OC)c2c3cc(ccc31)N1CCOC(CC(NC(=O)C(C(C)C)N(C)C(=O)C3(F)CCN(C(=O)C#CC(C)(C)N(C)C)CC3)C(=O)N3CCCC(N3)C(=O)OCC(C)(C)C2)C1
- viability, T/C [1]: 88.1%
- viability, T/C [2]: 96.7%
- viability, T/C [3]: 108%
- viability, T/C [4]: 69%
- viability, T/C [5]: 40.5%
- viability, T/C [6]: 29.4%
- viability, T/C [7]: 83.4%
- viability, T/C [8]: 83.4%
- viability, T/C [9]: 88.2%
- viability, T/C [10]: 62.8%
- viability, T/C [11]: 39.9%
- viability, T/C [12]: 29.4%
- viability, T/C [13]: 90.2%
- viability, T/C [14]: 82.8%
- viability, T/C [15]: 89.2%
- viability, T/C [16]: 67%
- viability, T/C [17]: 43.9%
- viability, T/C [18]: 28%
- viability, T/C [19]: 104%
- viability, T/C [20]: 95.8%
- viability, T/C [21]: 108%
- viability, T/C [22]: 57.3%
- viability, T/C [23]: 36.6%
- viability, T/C [24]: 25.3%
- viability, T/C [25]: 99%
- viability, T/C [26]: 106%
- viability, T/C [27]: 72%
- viability, T/C [28]: 40.6%
- viability, T/C [29]: 34.7%
- viability, T/C [30]: 18.7%
- viability, T/C [31]: 99.2%
- viability, T/C [32]: 83.3%
- viability, T/C [33]: 51.8%
- viability, T/C [34]: 27.9%
- viability, T/C [35]: 20.4%
- viability, T/C [36]: 15.8%

- IC50 (second compound 0.000949 µM): 0.0603 µM
- IC50 (second compound 0.003 µM): 0.076 µM
- IC50 (second compound 0.00949 µM): 0.059 µM
- IC50 (second compound 0.03 µM): 0.0569 µM
- IC50 (second compound 0.0949 µM): 0.0412 µM
- IC50 (second compound 0.3 µM): 0.0249 µM
SMILES: CC(C)n1nc(-c2ccc3oc(N)nc3c2)c2c(N)ncnc21 + CCn1c(-c2cccnc2C(C)OC)c2c3cc(ccc31)N1CCOC(CC(NC(=O)C(C(C)C)N(C)C(=O)C3(F)CCN(C(=O)C#CC(C)(C)N(C)C)CC3)C(=O)N3CCCC(N3)C(=O)OCC(C)(C)C2)C1
- viability, T/C (second compound 0.000949 µM, first compound 0.000316 µM): 115%
- viability, T/C (second compound 0.000949 µM, first compound 0.001 µM): 98.1%
- viability, T/C (second compound 0.000949 µM, first compound 0.00316 µM): 98.5%
- viability, T/C (second compound 0.000949 µM, first compound 0.01 µM): 100%
- viability, T/C [1]: 70.6%
- viability, T/C [2]: 33.7%
- viability, T/C (second compound 0.003 µM, first compound 0.000316 µM): 88%
- viability, T/C (second compound 0.003 µM, first compound 0.001 µM): 99%
- viability, T/C (second compound 0.003 µM, first compound 0.00316 µM): 97.1%
- viability, T/C (second compound 0.003 µM, first compound 0.01 µM): 92.2%
- viability, T/C [7]: 79.6%
- viability, T/C [8]: 40.5%
- viability, T/C (second compound 0.00949 µM, first compound 0.000316 µM): 90.1%
- viability, T/C (second compound 0.00949 µM, first compound 0.001 µM): 115%
- viability, T/C (second compound 0.00949 µM, first compound 0.00316 µM): 93%
- viability, T/C (second compound 0.00949 µM, first compound 0.01 µM): 94.1%
- viability, T/C [13]: 69.3%
- viability, T/C [14]: 33.6%
- viability, T/C (second compound 0.03 µM, first compound 0.000316 µM): 106%
- viability, T/C (second compound 0.03 µM, first compound 0.001 µM): 107%
- viability, T/C (second compound 0.03 µM, first compound 0.00316 µM): 92.7%
- viability, T/C (second compound 0.03 µM, first compound 0.01 µM): 90.2%
- viability, T/C [19]: 70.3%
- viability, T/C [20]: 31.2%
- viability, T/C (second compound 0.0949 µM, first compound 0.000316 µM): 103%
- viability, T/C (second compound 0.0949 µM, first compound 0.001 µM): 98.4%
- viability, T/C (second compound 0.0949 µM, first compound 0.00316 µM): 105%
- viability, T/C (second compound 0.0949 µM, first compound 0.01 µM): 95.4%
- viability, T/C [25]: 55.8%
- viability, T/C [26]: 31%
- viability, T/C (second compound 0.3 µM, first compound 0.000316 µM): 101%
- viability, T/C (second compound 0.3 µM, first compound 0.001 µM): 100%
- viability, T/C (second compound 0.3 µM, first compound 0.00316 µM): 91.7%
- viability, T/C (second compound 0.3 µM, first compound 0.01 µM): 72.5%
- viability, T/C [31]: 44.3%
- viability, T/C [32]: 21.3%

- IC50 (second compound 0.000949 µM): 5.91 µM
- IC50 (second compound 0.003 µM): 5.85 µM
- IC50 (second compound 0.00949 µM): 5.63 µM
- IC50 (second compound 0.03 µM): 5.69 µM
- IC50 (second compound 0.0949 µM): 2.56 µM
- IC50 (second compound 0.3 µM): 0.317 µM
SMILES: CC(Nc1ccc2c(c1)OCCn1cc(N3C(=O)OCC3C(F)F)nc1-2)C(N)=O (stereo not drawn) + CCn1c(-c2cccnc2C(C)OC)c2c3cc(ccc31)N1CCOC(CC(NC(=O)C(C(C)C)N(C)C(=O)C3(F)CCN(C(=O)C#CC(C)(C)N(C)C)CC3)C(=O)N3CCCC(N3)C(=O)OCC(C)(C)C2)C1
- viability, T/C [1]: 108%
- viability, T/C [2]: 97.7%
- viability, T/C [3]: 70.5%
- viability, T/C [4]: 49.3%
- viability, T/C [5]: 96.2%
- viability, T/C [6]: 21.1%
- viability, T/C [7]: 95.1%
- viability, T/C [8]: 90.1%
- viability, T/C [9]: 66.2%
- viability, T/C [10]: 55.3%
- viability, T/C [11]: 105%
- viability, T/C [12]: 21.8%
- viability, T/C [13]: 78.8%
- viability, T/C [14]: 94%
- viability, T/C [15]: 74.3%
- viability, T/C [16]: 52.1%
- viability, T/C [17]: 102%
- viability, T/C [18]: 19.8%
- viability, T/C [19]: 105%
- viability, T/C [20]: 91.7%
- viability, T/C [21]: 65.3%
- viability, T/C [22]: 48%
- viability, T/C [23]: 108%
- viability, T/C [24]: 17.6%
- viability, T/C [25]: 102%
- viability, T/C [26]: 91.9%
- viability, T/C [27]: 59.2%
- viability, T/C [28]: 38.5%
- viability, T/C [29]: 97.8%
- viability, T/C [30]: 12.3%
- viability, T/C [31]: 96.1%
- viability, T/C [32]: 66.4%
- viability, T/C [33]: 47.1%
- viability, T/C [34]: 25.4%
- viability, T/C [35]: 86.4%
- viability, T/C [36]: 7.8%

- IC50 (second compound 0.000949 µM): > 10 µM
- IC50 (second compound 0.003 µM): > 10 µM
- IC50 (second compound 0.00949 µM): > 10 µM
- IC50 (second compound 0.03 µM): > 10 µM
- IC50 (second compound 0.0949 µM): > 10 µM
- IC50 (second compound 0.3 µM): > 10 µM
SMILES: C[C@@H](NC(=O)c1ncnc(N)c1Cl)c1ncc(C(=O)Nc2cc(C(F)(F)F)c(Cl)cn2)s1 + CCn1c(-c2cccnc2C(C)OC)c2c3cc(ccc31)N1CCOC(CC(NC(=O)C(C(C)C)N(C)C(=O)C3(F)CCN(C(=O)C#CC(C)(C)N(C)C)CC3)C(=O)N3CCCC(N3)C(=O)OCC(C)(C)C2)C1
- viability, T/C [1]: 103%
- viability, T/C [2]: 85.1%
- viability, T/C [3]: 87.7%
- viability, T/C [4]: 96.6%
- viability, T/C [5]: 104%
- viability, T/C [6]: 80.5%
- viability, T/C [7]: 91.5%
- viability, T/C [8]: 84.5%
- viability, T/C [9]: 90.7%
- viability, T/C [10]: 90.1%
- viability, T/C [11]: 92.9%
- viability, T/C [12]: 95.1%
- viability, T/C [13]: 101%
- viability, T/C [14]: 95.3%
- viability, T/C [15]: 93.1%
- viability, T/C [16]: 105%
- viability, T/C [17]: 94.6%
- viability, T/C [18]: 82.6%
- viability, T/C [19]: 93.8%
- viability, T/C [20]: 95.4%
- viability, T/C [21]: 89.2%
- viability, T/C [22]: 85.8%
- viability, T/C [23]: 95.7%
- viability, T/C [24]: 72.5%
- viability, T/C [25]: 102%
- viability, T/C [26]: 116%
- viability, T/C [27]: 104%
- viability, T/C [28]: 113%
- viability, T/C [29]: 110%
- viability, T/C [30]: 76.3%
- viability, T/C [31]: 109%
- viability, T/C [32]: 120%
- viability, T/C [33]: 114%
- viability, T/C [34]: 112%
- viability, T/C [35]: 103%
- viability, T/C [36]: 57%
